“Also recorded” adds a separate entry of the source.
Molecular target: T1, microsomal recombinant human cytochrome P450 2A6 (CYP2A6) (Homo sapiens, UniProt P11509)
T1 sequence (P11509 1-494): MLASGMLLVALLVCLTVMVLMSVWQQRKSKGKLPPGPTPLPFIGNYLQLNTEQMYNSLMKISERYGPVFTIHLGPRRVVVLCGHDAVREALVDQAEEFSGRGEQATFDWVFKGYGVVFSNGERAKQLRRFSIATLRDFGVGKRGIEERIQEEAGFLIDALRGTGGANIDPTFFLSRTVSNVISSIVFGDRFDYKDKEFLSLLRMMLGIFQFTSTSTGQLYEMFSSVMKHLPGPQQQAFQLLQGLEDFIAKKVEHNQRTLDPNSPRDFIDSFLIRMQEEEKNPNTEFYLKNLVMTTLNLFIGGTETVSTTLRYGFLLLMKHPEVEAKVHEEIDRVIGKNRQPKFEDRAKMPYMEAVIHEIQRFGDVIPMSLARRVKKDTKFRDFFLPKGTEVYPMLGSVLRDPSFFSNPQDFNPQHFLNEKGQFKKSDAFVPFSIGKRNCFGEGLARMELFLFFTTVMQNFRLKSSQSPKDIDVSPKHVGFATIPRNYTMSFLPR
Experiment: Vivid fluorescence-based CYP2A6 inhibition screening
Type: biochemical

`O=Cc1ccccc1` [Benzaldehyde, benzaldehyde] showed an IC50 of 3 µM.

For `O=C/C=C/c1ccccc1` [Cinnamaldehyde, trans-cinnamaldehyde], the IC50 was 1.1 µM.

With `CCOc1cc(C=O)ccc1O` [Ethyl vanillin, ethyl-vanillin] the IC50 was 69.4 µM and the CYP2A6 inhibition (flavoring agent at 500 μM) was “near-maximal inhibition”.

For `CC(=O)OCCC(C)C` [Isoamyl Acetate, isoamyl acetate], the IC50 was > 500 µM and the CYP2A6 inhibition (flavoring agent up to 500 μM (highest concentration)) was “negligible inhibition; also recorded: no inhibition”.

With `COc1cc(C=O)ccc1O` [Vanillin, vanillin] the IC50 was 70 µM and the CYP2A6 inhibition (flavoring agent at 500 μM) was “near-maximal inhibition”.

Reference: publication PMC7422938 (Chemical research in toxicology, 2020)
